Among the data in patent US7108996B2, “Method for increasing luminescence assay sensitivity” (Promega Corporation, priority 2000, dated 2006) are Effect on luminescence and Fold decrease autoluminescence values, retold here.

Like-named read-outs stand apart in the source and are kept apart here.

Experiment [1] has as its target T1, Renilla luciferase (Renilla reniformis, UniProt P27652). Conditions: 100 mM compound, Format A. Here is the method: (§1) The enzymatic luminescence measurement may have an autoluminescence component.
(§2) Format A Assays were performed in the presence of Steady Glo® reagent (SG) and Stop & Glo® reagent (S+G), (Promega Corporation, Madison Wis.). A total reaction volume of 150 μl consisted of:
(§3) 50 μl F-12 (Ham) media+1 mg/ml gelatin (with or without enzyme^1)
(§4) 50 μl S+G (containing substrate^2)
(§5) 50 μl SG ^1 Renilla luciferase enzyme was added to F-12 cell culture media containing 1% gelatin, to a concentration of approximately 2.5 ng/50 μl media. Reactions in the absence of Renilla luciferase reveal the effect of the compound on autoluminescence while reactions in the presence of enzyme reveal the effect of the compound on Renilla luciferase-catalyzed luminescence.^2 The S+G reagent was prepared as per manufacturer's instructions, with the exception that for these experiments a S+G solvent three times more concentrated than normal was used to resuspend the S+G substrate.
(§6) The compound to be tested was re-suspended in either SG or S+G reagent to a final concentration of SG or S+G of (1×). The compound was added so the final concentration in the 150 μl total volume would be that listed in Table 1 and the reagent was diluted to the a final of 50 μl with water. For controls, the SG or S+G reagent was brought up to 50 μl with water or with the solvent used to dissolve the compound of interest. For example, if a compound needed to be dissolved in DMSO (dimethyl sulphoxide), an equal volume of DMSO was added to the control reaction. Unless otherwise indicated, the compounds were first dissolved in water.
(§7) For each concentration of a particular compound, a mixture containing all of the components in sufficient amounts for four reactions (i.e. 200 μl media, 200 μl SG, 200 μl S+G) was assembled. From this mixture, 150 μl was dispensed into triplicate wells on a 96-well plate. Alternatively, reactions were sometimes assembled in each well of the plate by adding each of the 50 μl portions and mixing. The plate was incubated at 22° C. and after 5 minutes the luminescence was measured using a Dynex plate luminometer (1 second measurement per well).
(§8) b) effect of the compound on enzymatic luminescence measurement in the presence of the compound when compared to control samples lacking only the compound.

For experiment [2] the following is noted: 100 mM compound, Format A. The method, then:
as §1, §2, §3, §4, §5, §6, §7
(§9) a) fold-decrease in non-enzymatic autoluminescence measurement in the presence of the compound when compared to the absence of the compound and, […]

The target in experiment [3] is T1, Renilla luciferase. The following applies: 30 mM compound, Format B3 (gelatin, detergent). Here is the method:
as §1
(§10) Format B Experiments were performed in a reaction volume of 150 μl Matthew's Buffer (referred to herein as MB) as either a standard MB composition or a modified MB composition as described below. As with Format A, reactions with and without Renilla luciferase were carried out to observe the effect of the organic compounds on assay sensitivity.
(§11) 1× Matthew's buffer standard composition consists of:
(§12) In order to observe the autoluminescence enhanced only by the detergent, for the majority of the experiments, BSA was replaced with porcine gelatin as the enzyme stabilizer at a final concentration of 0.15 mg/ml or 0.45 mg/ml. Taking all the variants into account the format can be sub-divided in 4 different versions:
(§13) Reactions were carried out in triplicate by adding each of the 50 μl portions to microtiter plate wells and mixing. The resulting relative light units generated per well was measured immediately using a Dynex MLX Microtiter plate luminometer or a Wallac 1450 MicroBeta Trilux plate luminometer (1 second/well) or alternatively, the plate was incubated at 22° C. and read after 5 minutes in the same fashion.
as §8

The conditions of experiment [4]: 30 mM compound. Here is the method: as §1, §10, §11, §12, §13, §9

T1 sequence (P27652 whole entry): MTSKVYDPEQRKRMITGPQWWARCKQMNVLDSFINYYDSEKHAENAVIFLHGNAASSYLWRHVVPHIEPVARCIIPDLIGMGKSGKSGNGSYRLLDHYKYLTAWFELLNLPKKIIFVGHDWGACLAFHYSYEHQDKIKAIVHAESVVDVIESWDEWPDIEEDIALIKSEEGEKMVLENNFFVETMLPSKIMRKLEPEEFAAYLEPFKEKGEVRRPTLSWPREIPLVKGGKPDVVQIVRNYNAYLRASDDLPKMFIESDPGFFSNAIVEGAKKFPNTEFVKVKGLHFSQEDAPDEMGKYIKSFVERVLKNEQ

`NCCS` [Compound 8]: the Effect on luminescence result in experiment [1] and in experiment [3] was “No effect” each time. For the same molecule, the Fold decrease autoluminescence in experiment [2] was 6 fold; in experiment [4] (Format B3 (gelatin, detergent)), 20 fold; in experiment [4] (Format B4 (gelatin, no detergent)), 3.5 fold.
